Assay results: publication PMC11061419, “Identification of novel small molecule inhibitors of twin arginine translocation (Tat) pathway and their effect on the control of Campylobacter jejuni in chickens” (Frontiers in Microbiology, 2024)
Values after ≈ are worked out from the molar mass of the structure shown. Values joined by “and” are separate entries in the source; they are usually repeats but may differ in a detail not shown here. Equal entries are not always repeated.

Experiments:
[1] = tested on: C. jejuni Au-47; experiment: Copper sulfate sensitivity dose–response assay in vitro (MIC/MBC); format: cell-based; settings: Campylobacter jejuni; for MIC: AU47, read-out: MIC, Au-47 (Table S4); for MBC: AU47, 0.5 mM CuSO4, read-out: MBC, Au-47 (Table S5)
Description: (§1) Campylobacter jejuni 81–176 was the primary model strain used for the selection of the potential Tat-dependent inhibitors by high-throughput screening. C. jejuni 81–176 is resistant to 0.5 and 1 mM CuSO4 (Supplementary Figure S1). C. jejuni 81–176 tatC knockout mutant (C. jejuni ΔtatC) was used to confirm the Tat-dependent inhibitory effect of the selected SM. C. jejuni ΔtatC is susceptible to 0.5 mM and higher of CuSO4 ([Rajashekara et al., 2009]). The specificity of the Tat-dependent inhibitors was also tested on 11 additional Campylobacter strains (C. coli ATCC33559 and 10 other C. jejuni strains isolated from chickens) and 7 commensal/beneficial bacteria (Supplementary Table S1). The […] (Au-13, Au-20, Au-38, Au-39, Au-47, Au-50, Au-24, Au-32, Au-44, and Au-45) were selected based on their single nucleotide polymorphism (SNP)-type and percent of prevalence in chickens ([Merchant-Patel et al., 2008]; [Kumar et al., 2016]). Additional details about the bacterial strains are shown in Supplementary Table S1.
(§2) In total, 19 SMs were two-fold serially diluted to obtain a final SM concentration ranging from 6.25 to 0.012 μg/mL. C. jejuni 81–176 was then treated with a determined concentration of SM, as described in the copper sensitivity assay. […] The lowest bactericidal SM concentration was considered the MBC (no increase in OD600 over time and no viable cells were recovered on agar plate after challenge) (N = 3 replicates per SM). […] However, these SMs were two-fold serially diluted to obtain a final SM concentration ranging from 5 μg to 0.0625 μg for testing (N = two independent experiments with four technical replicate for each SM).

[2] = tested on: C. jejuni Au-44; experiment: as above; format: cell-based; settings: Campylobacter jejuni; for MIC: AU44, read-out: MIC, Au-44 (Table S4); for MBC: AU44, 0.5 mM CuSO4, read-out: MBC, Au-44 (Table S5)
Description: as §1, §2

[3] = tested on: C. jejuni Au-39; experiment: as above; format: cell-based; settings: Campylobacter jejuni; for MIC: AU39, read-out: MIC, Au-39 (Table S4); for MBC: AU39, 0.5 mM CuSO4, read-out: MBC, Au-39 (Table S5)
Description: as §1, §2

[4] = tested on: C. jejuni Au-50; experiment: as above; format: cell-based; settings: Campylobacter jejuni; for MIC: AU50, read-out: MIC, Au-50 (Table S4); for MBC: AU50, 0.5 mM CuSO4, read-out: MBC, Au-50 (Table S5)
Description: as §1, §2

[5] = tested on: C. coli ATCC33559; experiment: as above; format: cell-based; settings: Campylobacter coli; for MIC: ATCC33559, read-out: MIC, C. coli (Table S4); for MBC: ATCC33559, 0.5 mM CuSO4, read-out: MBC, C. coli (Table S5)
Description: as §1, §2

[6] = tested on: C. jejuni Au-45; experiment: as above; format: cell-based; settings: Campylobacter jejuni; for MIC: AU45, read-out: MIC, Au-45 (Table S4); for MBC: AU45, 0.5 mM CuSO4, read-out: MBC, Au-45 (Table S5)
Description: as §1, §2

[7] = tested on: C. jejuni Au-13; experiment: as above; format: cell-based; settings: Campylobacter jejuni; for MIC: AU13, read-out: MIC, Au-13 (Table S4); for MBC: AU13, 0.5 mM CuSO4, read-out: MBC, Au-13 (Table S5)
Description: as §1, §2

[8] = tested on: C. jejuni Au-38; experiment: as above; format: cell-based; settings: Campylobacter jejuni; for MIC: AU38, read-out: MIC, Au-38 (Table S4); for MBC: AU38, 0.5 mM CuSO4, read-out: MBC, Au-38 (Table S5)
Description: as §1, §2

[9] = tested on: C. jejuni Au-32; experiment: as above; format: cell-based; settings: Campylobacter jejuni; for MIC: AU32, read-out: MIC, Au-32 (Table S4); for MBC: AU32, 0.5 mM CuSO4, read-out: MBC, Au-32 (Table S5)
Description: as §1, §2

[10] = tested on: C. jejuni Au-24; experiment: as above; format: cell-based; settings: Campylobacter jejuni; for MIC: AU24, read-out: MIC, Au-24 (Table S4); for MBC: AU24, 0.5 mM CuSO4, read-out: MBC, Au-24 (Table S5)
Description: as §1, §2

[11] = tested on: C. jejuni Au-20; experiment: as above; format: cell-based; settings: Campylobacter jejuni; for MIC: AU20, read-out: MIC, Au-20 (Table S4); for MBC: AU20, 0.5 mM CuSO4, read-out: MBC, Au-20 (Table S5)
Description: as §1, §2

[12] = tested on: Commensal/beneficial gut bacteria (n = 7); experiment: Activity spectrum against commensal/beneficial gut bacteria at 6.25 μg/mL; format: cell-based; settings: 6.25 μg/mL SM; for Commensal/beneficial gut bacteria inhibited at 6.25 μg/mL (species): Ef Enterococcus faecalis, Lb Levilactobacillus brevis, LGG Lacticaseibacillus rhamnosus GG
Description: A similar experiment was performed with seven commensal/beneficial gut bacteria to determine species specificity of these SMs. In brief, an overnight suspension was normalized at 0.05 OD600 using the appropriate medium and challenged with 6.25 μg/mL of SM. Details about the strains and their growing conditions are shown in Supplementary Table S1. Medium alone and 1% DMSO were used as controls (N = 3 replicates per SM).

[13] = tested on: Campylobacter spp. (12 strains); experiment: Activity spectrum against Campylobacter strains at 6.25 μg/mL with 0.5 mM CuSO4; format: cell-based, Campylobacter jejuni, Campylobacter coli; settings: 6.25 μg/mL SM
[14] = tested on: C. jejuni 81–176; experiment: Copper sulfate sensitivity dose–response assay in vitro (MIC/MBC); format: cell-based, Campylobacter jejuni; settings: for MBC / MIC: Campylobacter jejuni, 0.5 mM CuSO4, head displaced; for MBC: read-out: MBC, C. jejuni (Table S5); for MIC: read-out: MIC, C. jejuni (Table S4); for C. jejuni 81–176 in vitro MBC: minimal bactericidal concentration in presence of 0.5 mM CuSO4; for C. jejuni 81–176 in vitro MIC: minimal bacteriostatic concentration in presence of 0.5 mM CuSO4
Description: as §2

[15] = tested on: intracellular C. jejuni 81–176 in Caco-2 cells; experiment: Copper sulfate sensitivity dose–response assay in infected Caco-2 colon epithelial cells; format: cell-based, Campylobacter jejuni; settings: 0.5 mM CuSO4; for SM concentration that completely cleared intracellular C. jejuni 81–176 in Caco-2 cells (MBC in Caco2 cells): 24 h treatment; for C. jejuni 81–176 MBC in Caco2 cells: infected Caco-2 cells, 24 h
Description: The intracellular reduction in C. jejuni in the presence of a given SM (T1-T8) and 0.5 mM CuSO4 were evaluated using Caco-2 cells, as previously described ([Kumar et al., 2016]; [Deblais et al., 2019]). In brief, cells were infected for 2 h using a multiplicity of infection (MOI) of 100. Infected cells were treated with SM at a final concentration ranging between 5 and 0.315 μg/mL and incubated at 37°C for 24 h in a humidified 5% CO2 incubator. Following incubation, cells were washed once with 1X PBS, lysed with 0.1% Triton-100X, serially 10-fold diluted in 1X PBS, and plated on MH agar plate. Plates were incubated in microaerophilic conditions at 42°C for 24 h, to determine the intracellular survival. Cells not infected and not treated and cells infected and treated with 1% DMSO were used as controls (N = two independent experiments with four technical replicate for each SM).

Row | SMILES | MIC [1] | MBC [1] | MIC [2] | MBC [2] | MIC [3] | MBC [3] | MIC [4] | MBC [4] | MIC [5] | MBC [5] | MIC [6] | MBC [6] | MIC [7] | MBC [7] | MIC [8] | MBC [8] | MIC [9] | MBC [9] | MIC [10] | MBC [10] | other results
1 | CSc1ccccc1-c1nnc(NC(=O)Cc2ccccc2)o1 [T7] | 0.31 µg/mL (≈ 0.953 µM) | 0.62 µg/mL (≈ 1.91 µM) | 0.31 µg/mL (≈ 0.953 µM) | 1.24 µg/mL (≈ 3.81 µM) | 0.31 µg/mL (≈ 0.953 µM) | 0.62 µg/mL (≈ 1.91 µM) | 0.08 µg/mL (≈ 0.246 µM) | 0.32 µg/mL (≈ 0.983 µM) | 0.16 µg/mL (≈ 0.492 µM) | 0.32 µg/mL (≈ 0.983 µM) | 0.16 µg/mL (≈ 0.492 µM) | 0.32 µg/mL (≈ 0.983 µM) | 0.31 µg/mL (≈ 0.953 µM) | 0.62 µg/mL (≈ 1.91 µM) | 0.16 µg/mL (≈ 0.492 µM) | 0.32 µg/mL (≈ 0.983 µM) | 0.08 µg/mL (≈ 0.246 µM) | 0.16 µg/mL (≈ 0.492 µM) | 0.08 µg/mL (≈ 0.246 µM) | 0.16 µg/mL (≈ 0.492 µM) | MIC [11]: 0.16 µg/mL (≈ 0.492 µM); MBC [11]: 0.32 µg/mL (≈ 0.983 µM); Growth inhibition at 6.25 μg/mL, Commensal/beneficial gut bacteria (strains inhibited/tested) [12]: 1/7; Commensal/beneficial gut bacteria inhibited at 6.25 μg/mL (species) [12]: LGG; Growth inhibition at 6.25 μg/mL, Campylobacter spp. (strains inhibited/tested) [13]: 12/12; MBC [14]: 0.16 µg/mL (≈ 0.492 µM); MIC [14]: 0.02 µg/mL (≈ 0.0615 µM); C. jejuni 81–176 in vitro MBC [14]: 0.16 µg/mL; C. jejuni 81–176 in vitro MIC [14]: 0.02 µg/mL; SM concentration that completely cleared intracellular C. jejuni 81–176 in Caco-2 cells (MBC in Caco2 cells) [15]: < 5 µg/mL; C. jejuni 81–176 MBC in Caco2 cells [15]: 2.5 µg/mL
2 | CCN(CC)/C(C)=N/C(=O)Nc1ccccc1 [T8] | 0.06 µg/mL (≈ 0.257 µM) | 0.06 µg/mL (≈ 0.257 µM) | 0.06 µg/mL (≈ 0.257 µM) | 0.12 µg/mL (≈ 0.514 µM) | 0.25 µg/mL (≈ 1.07 µM) | 0.25 µg/mL (≈ 1.07 µM) | 0.25 µg/mL (≈ 1.07 µM) | 0.5 µg/mL (≈ 2.14 µM) | 0.25 µg/mL (≈ 1.07 µM) | 0.25 µg/mL (≈ 1.07 µM) | 0.25 µg/mL (≈ 1.07 µM) | 0.25 µg/mL (≈ 1.07 µM) | 0.06 µg/mL (≈ 0.257 µM) | 0.06 µg/mL (≈ 0.257 µM) | 0.06 µg/mL (≈ 0.257 µM) | 0.06 µg/mL (≈ 0.257 µM) | 0.25 µg/mL (≈ 1.07 µM) | 0.25 µg/mL (≈ 1.07 µM) | 0.06 µg/mL (≈ 0.257 µM) | 0.06 µg/mL (≈ 0.257 µM) | MIC [11]: 0.25 µg/mL (≈ 1.07 µM); MBC [11]: 0.25 µg/mL (≈ 1.07 µM); Growth inhibition at 6.25 μg/mL, Commensal/beneficial gut bacteria (strains inhibited/tested) [12]: 2/7; Commensal/beneficial gut bacteria inhibited at 6.25 μg/mL (species) [12]: Lb and Ef; Growth inhibition at 6.25 μg/mL, Campylobacter spp. (strains inhibited/tested) [13]: 12/12; MBC [14]: 0.12 µg/mL (≈ 0.514 µM); MIC [14]: 0.08 µg/mL (≈ 0.343 µM); C. jejuni 81–176 in vitro MBC [14]: 0.12 µg/mL; C. jejuni 81–176 in vitro MIC [14]: 0.08 µg/mL; SM concentration that completely cleared intracellular C. jejuni 81–176 in Caco-2 cells (MBC in Caco2 cells) [15]: < 5 µg/mL and 5 µg/mL; C. jejuni 81–176 MBC in Caco2 cells [15]: 5 µg/mL
